In patent US8791268B2, “Vanilloid receptor ligands, pharmaceutical compositions containing them, process for making them, and use thereof for treating pain and other conditions” (Gruenenthal GmbH, priority 2007, dated 2014):

How the values were obtained:
Format in all cases: cell-based
vanilloid receptor (VR1) = vanilloid receptor (VR1) (Homo sapiens (Human), UniProt Q8NER1); assay: FLIPR Ca2+ influx assay on CHO-K1 cells transfected with the human VR1 gene, capsaicin stimulus (Pharmacological Method II)
Protocol: Furthermore, preference may be given to compounds of the invention of the general formulas I, Ia, Ib and Ic, which in the FLIPR assay using CHO—K1 cells, which have been transfected with the human VR1 gene in a concentration below 2000 nM, preferably below 1000 nM, more preferably below 300 nM, even more preferably below 100 nM, still more preferably below 75 nM, very preferably below 50 nM and most preferably below 10 nM, cause a 50 percent displacement of capsaicin present in a concentration of 100 nM. In the FLIPR assay, the Ca^2+ influx is quantified with the aid of a Ca^2+-sensitive dye (type Fluo-4, Molecular Probes Europe BV, Leiden, Netherlands) in a fluorescent imaging plate reader (FLIPR, Molecular Devices, Sunnyvale, USA), as described below.
II. Functional Investigations on the Vanilloid Receptor (VR1)
The agonistic or antagonistic action of the substances to be examined on the vanilloid receptor (VR1) can alternatively be determined by the following assay. According to this assay the Ca^2+ influx through the canal is quantified with the aid of a Ca^2+-sensitive dye (type Fluo-4, Molecular Probes, Europe BV, Leiden, Netherlands) in a fluorescent imaging plate reader (FLIPR, Molecular Devices, Sunnyvale, USA).
Chinese hamster ovary cells (CHO—K1 cells, European Collection of Cell Cultures (ECACC) UK) are stably transfected with the VR1 gene. For carrying out functional investigations, these cells are plated on poly-D-lysine-coated, black 96-well plates with a clear bottom (BD Biosciences, Heidelberg, Germany) in a density of 25,000 cells/well. The cells are incubated overnight at 37° C. and 5% CO2 in a culture medium (Nutrient Mixture ‘am’s F12, 10% by volume of FCS (fetal calf serum), 18 μg/mL of L-proline). On the following day the cells are incubated with Fluo-4 (Fluo-4 2 μM, Pluronic F127 0.01 by volume, Molecular Probes in HBSS (Hank's buffered saline solution), Gibco Invitrogen GmbH, Karlsruhe, Germany) for 30 minutes at 37° C. The plates are then washed 3 times with HBSS buffer and, after another incubation over a period of 15 minutes at RT, are used in the FLIPR for Ca^2+ measurement. The Ca^2+-dependent fluorescence is measured prior to and following the addition of the substances being examined (wavelength λex=488 nm, λem=540 nm). Quantification is carried out by measuring the highest fluorescence intensity (PC, fluorescence counts) over time.
The FLIPR protocol consists of two substance additions. First of all, the substances to be tested (10 μM) are pipeted onto the cells and the Ca^2+ influx is compared with the control (capsaicin 10 μM) (percentage activation based on the Ca^2+ signal following addition of 10 μM of capsaicin). Following incubation over a period of 5 minutes 100 nM of capsaicin are applied and the influx of Ca^2+ is likewise determined.
Desensitizing agonists and antagonists lead to a suppression of the Ca^2+ influx. The percentage inhibition compared with the maximum inhibition achieved with 10 μM of capsaicin is calculated.
Based on the percentage displacement effected by different concentrations of the compounds of the general formula Ito be tested, IC50 inhibition concentrations that cause 50 percent displacement of capsaicin are calculated. Conversion using the Cheng Prusoff equation gave Ki values for the test substances (Cheng, Prusoff; Bioch. Pharmacol. 22, 3099-3108, 1973).
The affinity of the compounds of the invention for the vanilloid receptor 1 (VR1/TRPV1-Receptor) was detected as described above (Pharmacological Methods I and II respectively).

VR1/TRPV1 receptor = VR1/TRPV1 receptor (Homo sapiens (Human), UniProt Q8NER1); assay: Inhibition of human VR1/TRPV1 following pH-stimulus; details: for IC50 (Human) following pH-stimulus / IC50: ne = no effect, no reaction observed; for inhibition at 1 µM / inhibition at 5 µM / inhibition at 10 µM: read-out: inhibition (in percent) following pH-stimulus (Human)
[1] = target: vanilloid receptor 1 (VR1/TRPV1) (Rattus norvegicus (Rat), UniProt O35433); assay: FLIPR Ca2+ influx assay on rat dorsal root ganglia cells, capsaicin stimulus (Pharmacological Method I)
Text: I. Functional Investigation on the Vanilloid Receptor 1 (VR1/TRPV1 Receptor)
The agonistic or antagonistic action of the substances to be investigated on the vanilloid receptor 1 (VR1/TRPV1) of the species rat can be determined using the following assay. According to this assay, the Ca^2+ influx through the receptor channel is quantified with the aid of a Ca^2+-sensitive dye (Type Fluo-4, Molecular Probes Europe BV, Leiden Netherlands) in a fluorescent imaging plate reader (FLIPR, Molecular Devices, Sunnyvale, USA).
Complete medium: 50 mL of HAMS F12 Nutrient Mixture (Gibco Invitrogen GmbH, Karlsruhe, Germany) with
10% by volume of FCS (fetal calf serum, Gibco Invitrogen GmbH, Karlsruhe, Germany, heat-inactivated);
2 mM of L-glutamine (Sigma, Munich, Germany);
1% by weight of AA solution (antibiotics/antimycotics solution, PAA, Pasching, Austria)
and 25 ng/mL of Medium NGF (2.5 S, Gibco Invitrogen GmbH, Karlsruhe, Germany) Cell culture plate: Poly-D-lysine-coated, black 96-well plates with a clear bottom (96-well black/clear plate, BD Biosciences, Heidelberg, Germany) are additionally coated with laminin (Gibco Invitrogen GmbH, Karlsruhe, Germany) by diluting laminin to a concentration of 100 μg/mL with PBS (Ca—Mg-free PBS, Gibco Invitrogen GmbH, Karlsruhe, Germany). Aliquots having a concentration of 100 μg/mL of laminin are taken and stored at −20° C. The aliquots are diluted with PBS in the ratio 1:10 to 10 μg/mL of laminin and in each case 50 μL of the solution is pipeted into a well of the cell culture plate. The cell culture plates are incubated at 37° C. for at least two hours, the supernatant solution is aspirated and the wells are in each case washed twice with PBS. The coated cell culture plates are stored with supernatant PBS and this is removed only directly before the addition of the cells.
Preparation of the Cells:
The vertebral column is removed from decapitated rats and this is laid directly in a cold, i.e. ice bath-surrounded, HBSS buffer (Hank's buffered saline solution, Gibco Invitrogen GmbH, Karlsruhe, Germany) and 1% by volume of an AA solution (antibiotics/antimycotics solution, PAA, Pasching, Austria) is added. The vertebral column is cut in two, longitudinally, and the vertebral canal is removed together with fascias. Subsequently, the dorsal root ganglia (DRGs) are removed and in turn stored in cold HBSS buffer to which 1% by volume of an AA solution has been added. The DRGs completely freed from blood residues and spinal nerves are in each case transferred to 500 μL of cold collagenase Type 2 (PAA, Pasching, Austria) and incubated at 37° C. for 35 minutes. After the addition of 2.5% by volume of trypsin (PAA, Pasching, Austria), the preparation is incubated at 37° C. for a further 10 minutes. On completion of incubation, the enzyme solution is carefully pipeted off and 500 μL of complete medium are added to the DRGs in each case. The DRGs are in each case repeatedly suspended, drawn through No. 1, No. 12, and No. 16 needles by means of a syringe and transferred to 50 mL Falcon tubes and these are filled to 15 mL with complete medium. The contents of each Falcon tube are in each case filtered through a 70 μm Falcon filter insert and centrifuged at 1200 rpm and RT for 10 minutes. The resulting pellet is in each case taken up in 250 μL of complete medium and the cell count is determined.
The number of cells in the suspension is adjusted to 3×10^5 per mL and in each case 150 μL of this suspension are added to a well of the cell culture plates coated as described above. The plates are allowed to stand at 37° C., 5% by volume of CO2 and 95% relative humidity for two to three days in an incubator. […]

Chain of vanilloid receptor 1 (VR1/TRPV1) (O35433 whole entry): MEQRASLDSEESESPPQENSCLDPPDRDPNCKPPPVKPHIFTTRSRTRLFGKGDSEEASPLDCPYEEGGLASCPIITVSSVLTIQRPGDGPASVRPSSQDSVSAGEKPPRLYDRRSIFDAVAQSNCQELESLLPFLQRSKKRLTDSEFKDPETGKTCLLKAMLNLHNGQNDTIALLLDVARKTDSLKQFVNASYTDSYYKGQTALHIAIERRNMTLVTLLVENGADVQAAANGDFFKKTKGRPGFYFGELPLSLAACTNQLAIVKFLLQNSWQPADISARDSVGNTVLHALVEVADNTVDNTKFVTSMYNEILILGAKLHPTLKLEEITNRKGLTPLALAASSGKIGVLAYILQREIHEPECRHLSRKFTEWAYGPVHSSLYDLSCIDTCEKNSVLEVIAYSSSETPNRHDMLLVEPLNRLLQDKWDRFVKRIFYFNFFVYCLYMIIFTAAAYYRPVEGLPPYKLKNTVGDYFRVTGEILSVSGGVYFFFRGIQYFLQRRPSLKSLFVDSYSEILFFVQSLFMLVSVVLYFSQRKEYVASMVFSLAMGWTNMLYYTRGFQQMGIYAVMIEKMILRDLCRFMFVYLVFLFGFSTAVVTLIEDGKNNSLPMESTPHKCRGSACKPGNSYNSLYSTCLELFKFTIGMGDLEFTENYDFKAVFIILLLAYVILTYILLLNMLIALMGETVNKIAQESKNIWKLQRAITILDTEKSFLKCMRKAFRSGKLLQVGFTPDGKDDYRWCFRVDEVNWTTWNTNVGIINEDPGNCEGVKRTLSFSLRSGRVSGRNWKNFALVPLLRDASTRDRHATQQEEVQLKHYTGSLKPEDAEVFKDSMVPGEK
Chain of VR1/TRPV1 receptor (Q8NER1 whole entry): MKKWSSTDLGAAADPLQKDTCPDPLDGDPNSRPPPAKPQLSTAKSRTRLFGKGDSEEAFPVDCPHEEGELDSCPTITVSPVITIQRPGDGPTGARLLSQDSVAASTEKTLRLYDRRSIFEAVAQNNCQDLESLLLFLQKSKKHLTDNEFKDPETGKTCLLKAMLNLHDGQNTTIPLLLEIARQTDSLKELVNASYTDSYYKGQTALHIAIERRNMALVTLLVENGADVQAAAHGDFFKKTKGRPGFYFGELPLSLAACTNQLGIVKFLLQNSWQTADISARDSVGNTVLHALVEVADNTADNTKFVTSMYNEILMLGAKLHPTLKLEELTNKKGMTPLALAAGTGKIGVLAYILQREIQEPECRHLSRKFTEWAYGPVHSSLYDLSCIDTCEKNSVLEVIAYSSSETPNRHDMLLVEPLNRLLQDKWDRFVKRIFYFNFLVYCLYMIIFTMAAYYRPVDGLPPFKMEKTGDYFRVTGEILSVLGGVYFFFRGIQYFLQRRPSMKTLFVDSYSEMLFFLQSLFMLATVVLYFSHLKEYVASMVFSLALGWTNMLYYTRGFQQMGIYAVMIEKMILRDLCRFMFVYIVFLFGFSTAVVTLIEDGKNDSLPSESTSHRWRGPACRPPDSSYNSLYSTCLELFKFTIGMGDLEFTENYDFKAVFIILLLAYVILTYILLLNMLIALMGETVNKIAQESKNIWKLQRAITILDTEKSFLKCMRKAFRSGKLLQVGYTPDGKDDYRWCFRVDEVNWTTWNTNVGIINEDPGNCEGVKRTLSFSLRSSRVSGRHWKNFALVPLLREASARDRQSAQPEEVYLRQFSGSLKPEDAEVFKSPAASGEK
Chain of vanilloid receptor (VR1) (Q8NER1 whole entry): as above

Row | SMILES | Ki (vanilloid receptor (VR1)) | IC50 (Human) following pH-stimulus (VR1/TRPV1 receptor) | Ki [1] | IC50 (VR1/TRPV1 receptor) | inhibition at 1 µM (VR1/TRPV1 receptor) | inhibition at 5 µM (VR1/TRPV1 receptor) | inhibition at 10 µM (VR1/TRPV1 receptor)
1 | CC1CCN(c2nc(C(F)(F)F)ccc2CNC(=O)Cc2cc(Br)cc(Br)c2)CC1 [Example 2, 2-(3,5-Dibromophenyl)-N-((2-(4-methylpiperidin-1-yl)-6-(trifluoromethyl)pyridin-3-yl)methyl)acetamide] | 40.6 nM | ne | 60.1 nM | – | – | – | –
2 | COc1cc(CC(=O)NCc2ccc(C(F)(F)F)nc2N2CCC(C)CC2)cc(Br)c1N [Example 3, 2-(4-Amino-3-bromo-5-methoxyphenyl)-N-(4-methyl-6′-trifluoromethyl-3,4,5,6-tetrahydro-2H-[1,2′]bipyridinyl-3′-ylmethyl)acetamide] | 4.4 nM | – | 16.7 nM | 253 nM | – | – | –
3 | CC1CCN(c2nc(C(F)(F)F)ccc2CNC(=O)Cc2cccc(F)c2)CC1 [Example 4, 2-(3-Fluorophenyl)-N-(4-methyl-6′-trifluoromethyl-3,4,5,6-tetrahydro-2H-[1,2′]bipyridinyl-3′-ylmethyl)acetamide] | 34 nM | ne | 80 nM | – | – | – | –
4 | CC1CCN(c2nc(C(F)(F)F)ccc2CNC(=O)Cc2c(F)cccc2F)CC1 [Example 6, 2-(2,6-Difluorophenyl)-N-(4-methyl-6′-trifluoromethyl-3,4,5,6-tetrahydro-2H-[1,2′]bipyridinyl-3′-ylmethyl)acetamide] | 38 nM | ne | 118 nM | – | – | – | –
5 | CC1CCN(c2nc(C(F)(F)F)ccc2CNC(=O)Cc2cc(F)ccc2F)CC1 [Example 7, 2-(2,5-Difluorophenyl)-N-(4-methyl-6′-trifluoromethyl-3,4,5,6-tetrahydro-2H-[1,2′]bipyridinyl-3′-ylmethyl)acetamide] | 30 nM | ne | 63 nM | – | – | – | –
6 | CC1CCN(c2nc(C(F)(F)F)ccc2CNC(=O)C(C)c2cc(F)cc(F)c2)CC1 (stereo not shown) [Example 10, 2-(3,5-Difluorophenyl)-N-(4-methyl-6′-trifluoromethyl-3,4,5,6-tetrahydro-2H-[1,2′]bipyridinyl-3′-ylmethyl)propionamide] | 24.7 nM | ne | – | – | – | – | –
7 | CC(=O)Nc1ccc(C(C)C(=O)NCc2ccc(C(F)(F)F)nc2N2CCC(C)CC2)cc1F (stereo not shown) [Example 18, 2-(4-Acetamido-3-fluorophenyl)-N-((2-(4-methylpiperidin-1-yl)-6-(trifluoromethyl)pyridin-3-yl)methyl)propanamide] | 25 nM | ne | – | – | – | – | –
8 | CC1CCN(c2nc(C(F)(F)F)ccc2CNC(=O)C(C)c2cc(Br)c(O)c(Br)c2)CC1 (stereo not shown) [Example 19, 2-(3,5-Dibromo-4-hydroxyphenyl)-N-(4-methyl-6′-trifluoromethyl-3,4,5,6-tetra-hydro-2H-[1,2′]bipyridinyl-3′-ylmethyl)propionamide] | 1.1 nM | – | – | – | 0% | 20% | 31%
9 | CC1CCN(c2nc(C(F)(F)F)ccc2CNC(=O)C(C)c2cc(Br)c(N)c(Br)c2)CC1 (stereo not shown) [Example 20, 2-(4-Amino-3,5-dibromophenyl)-N-(4-methyl-6′-trifluoromethyl-3,4,5,6-tetra-hydro-2H-[1,2′]bipyridinyl-3′-ylmethyl)propionamide] | 0.9 nM | – | – | – | 0% | 10% | 27%
10 | COc1cc(CC(=O)NCc2ccc(C(F)(F)F)nc2N2CCC(C)CC2)cc(Br)c1O [Example 21, 2-(3-Bromo-4-hydroxy-5-methoxyphenyl)-N-(4-methyl-6′-trifluoromethyl-3,4,5,6-tetrahydro-2H-[1,2′]bipyridinyl-3′-ylmethyl)acetamide] | 0.1 nM | – | – | – | – | 4% | 38%
11 | CC1CCN(c2nc(C(F)(F)F)ccc2CNC(=O)Cc2cc(Br)c(N)c(Br)c2)CC1 [Example 22, 2-(4-Amino-3,5-dibromophenyl)-N-(4-methyl-6′-trifluoromethyl-3,4,5,6-tetra-hydro-2H-[1,2′]bipyridinyl-3′-ylmethyl)acetamide] | 0.7 nM | – | – | 158 nM | – | – | –
12 | CC1CCN(c2nc(C(F)(F)F)ccc2CNC(=O)Cc2cc(Br)c(O)c(Br)c2)CC1 [Example 23, 2-(3,5-Dibromo-4-hydroxyphenyl)-N-(4-methyl-6′-trifluoromethyl-3,4,5,6-tetra-hydro-2H-[1,2′]bipyridinyl-3′-ylmethyl)acetamide] | 0.3 nM | – | – | – | – | 8% | 35%
13 | C=CC(=O)Nc1c(F)cc(C(C)C(=O)NCc2ccc(C(F)(F)F)nc2N2CCC(C)CC2)cc1I (stereo not shown) [Example 34, N-(2-Fluoro-6-iodo-4-(1-((2-(4-methylpiperidin-1-yl)-6-(trifluoromethyl)pyridin-3-yl)methylamino)-1-oxopropan-2-yl)phenyl)acrylamide] | 4.8 nM | ne | – | – | – | – | –
